Experimental data from US20250296960A1, “PEPTIDE COMPOSITIONS AND METHODS OF USE THEREOF” (priority 2022, published 2025).
“And” between values parts separate entries of the source, which are not always exact repeats. Equal entries are not always repeated. Square brackets hold non-standard residues; d marks the D form. Peptide text beside a SMILES is read from it. * marks the point of attachment. X1 = O=C(O)CCCCCCCCCCCCCCCCC(=O)N[C@@H](CCC(=O)NCCOCCOCC(=O)NCCOCCOCC(=O)NCCN1C(=O)CC(*)C1=O)C(=O)O; Aib = CC(C)(N)C(=O)O

How the values were obtained:
[1] = target: T1, human GLP-1R (Homo sapiens, UniProt P43220); experiment: cAMP assay (HitHunter cAMP) in GLP-1R-expressing CHO-K1 cells (GLP-1R+ cells); format: cell-based; details: for Activity relative to STD peptide (%), GLP-1: Table 13, EC50 of STD peptide over EC50 of peptide; for Activity relative to GLP-1 (%), GLP-1: Table 14; for Activity relative to GLP-1 (%), GLP-1 / Activity relative to GLP-1 (%), GLP-1R: normalised to activity at GLP-1R; for Activity relative to STD peptide (%), GLP-1R: Table 18; for Activity relative to GLP-1 (%), GLP-1R: Table 19; for Relative % to native ligand, GLP-1R: Table 24, ratio of EC50 of native ligand over peptide; for Ratio vs. GLP-1R, GLP-1R: Table 25; for Relative % to non-lipidated peptide, GLP-1R: Table 26
T1 construct: host or cells: CHO-K1
Protocol: (§1) The cells were seeded in a 96-well plate at 7×10^3 cells/well using cell plate reagent and incubated the cells overnight at 37° C. and 5% CO2. To perform the cAMP detection assay, cell plating reagent were replaced with the cAMP Assay buffer. Each of the wells was then treated with the diluted peptide and incubated for 30 minutes under conditions of a temperature of 37° C. in a CO2 incubator.
(§2) After the incubation, cAMP Antibody reagent and Working cAMP detection solution to all wells. Incubate the plate for 1 hour at Room temperature in the dark. Then, cAMP Solution A was added and incubated for 3 hours at room temperature in the dark. Subsequently, the luminescence was measured using the microplate reader device.

[2] = target: T2, human GCGR (Homo sapiens, UniProt P47871); experiment: cAMP assay (HitHunter cAMP) in GCGR-expressing CHO-K1 cells (GCGR+ cells); format: cell-based; details: for Activity relative to STD peptide (%), Glucagon: Table 13, EC50 of STD peptide over EC50 of peptide; for Activity relative to GLP-1 (%), Glucagon: Table 14; for Activity relative to GLP-1 (%), Glucagon / Activity relative to GLP-1 (%), GCGR: normalised to activity at GLP-1R; for Activity relative to STD peptide (%), GCGR: Table 18; for Activity relative to GLP-1 (%), GCGR: Table 19; for Relative % to native ligand, GCGR: Table 24, ratio of EC50 of native ligand over peptide; for Ratio vs. GLP-1R, GCGR: Table 25; for Relative % to non-lipidated peptide, GCGR: Table 26
T2 construct: host or cells: CHO-K1
Protocol: as §1, §2

[3] = target: T3, human GIPR (Homo sapiens, UniProt P48546); experiment: cAMP assay (HitHunter cAMP) in GIPR-expressing CHO-K1 cells (GIPR+ cells); format: cell-based; details: for Activity relative to STD peptide (%), GIP: Table 13, EC50 of STD peptide over EC50 of peptide; for Activity relative to GLP-1 (%), GIP: Table 14; for Activity relative to GLP-1 (%), GIP / Activity relative to GLP-1 (%), GIPR: normalised to activity at GLP-1R; for Activity relative to STD peptide (%), GIPR: Table 18; for Activity relative to GLP-1 (%), GIPR: Table 19; for Relative % to native ligand, GIPR: Table 24, ratio of EC50 of native ligand over peptide; for Ratio vs. GLP-1R, GIPR: Table 25; for Relative % to non-lipidated peptide, GIPR: Table 26
T3 construct: host or cells: CHO-K1
T3 sequence (P48546 22-466): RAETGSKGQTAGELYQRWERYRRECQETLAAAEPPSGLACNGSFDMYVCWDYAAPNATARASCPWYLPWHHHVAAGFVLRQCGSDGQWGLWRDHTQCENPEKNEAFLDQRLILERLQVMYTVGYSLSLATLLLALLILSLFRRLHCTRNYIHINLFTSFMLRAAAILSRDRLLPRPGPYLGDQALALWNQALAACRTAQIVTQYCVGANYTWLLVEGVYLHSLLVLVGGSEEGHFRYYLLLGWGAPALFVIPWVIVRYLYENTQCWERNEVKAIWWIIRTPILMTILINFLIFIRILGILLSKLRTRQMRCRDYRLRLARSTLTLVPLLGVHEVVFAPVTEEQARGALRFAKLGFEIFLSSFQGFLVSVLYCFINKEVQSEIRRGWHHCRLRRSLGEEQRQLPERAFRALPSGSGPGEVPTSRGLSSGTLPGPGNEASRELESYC
Protocol: as §1, §2

[4] = Body weight loss in normal C57BL/6 mice, subcutaneous dosing; format: in vivo; details: for Weight loss (%): normal mice, after 48 or 72 hours
Protocol: To confirm the therapeutic effect of the peptide in vivo, polypeptides were administered to mice to measure changes in body weight. […] The peptides were delivered at 0.02% polysorbate 80 (PS80) in PBS and dosing volume was 10 mL/kg. Body weight was monitored 6 h, QD.
To confirm the therapeutic effect of the peptide in obesity, diabetes, or NASH, polypeptides were administered to mice to measure changes in food intake, blood glucose and body weight. […] In addition, a NASH animal model was prepared by feeding a high fat, high fructose, high cholesterol diet to normal C57BL/6 mice (approximately 6 weeks old) for approximately 21 weeks, and increasing the body weights of the mice to approximately 50 g on average. Thereafter, polypeptides were administered by subcutaneous injection at dose of 20 nmol/kg once every other day for 2 weeks. Body weight and food intake were measured once every other day given points of time. After 2 weeks of treatment period, mice were sacrificed, then liver weight, hepatic triglyceride, and NASH related biomarkers were measured.
DD01 administered at 40 nmol/kg, s.c. Q2D as positive control was delivered at 0.02% PS80 in PBS and dosing volume was 10 mL/kg. Body weight was monitored QD for 4 days.
The peptides were delivered at 0.02% PS80 in PBS and dosing volume was 10 mL/kg. Food intake, blood glucose, and body weight changes were monitored QD.

T1 sequence (P43220 24-463): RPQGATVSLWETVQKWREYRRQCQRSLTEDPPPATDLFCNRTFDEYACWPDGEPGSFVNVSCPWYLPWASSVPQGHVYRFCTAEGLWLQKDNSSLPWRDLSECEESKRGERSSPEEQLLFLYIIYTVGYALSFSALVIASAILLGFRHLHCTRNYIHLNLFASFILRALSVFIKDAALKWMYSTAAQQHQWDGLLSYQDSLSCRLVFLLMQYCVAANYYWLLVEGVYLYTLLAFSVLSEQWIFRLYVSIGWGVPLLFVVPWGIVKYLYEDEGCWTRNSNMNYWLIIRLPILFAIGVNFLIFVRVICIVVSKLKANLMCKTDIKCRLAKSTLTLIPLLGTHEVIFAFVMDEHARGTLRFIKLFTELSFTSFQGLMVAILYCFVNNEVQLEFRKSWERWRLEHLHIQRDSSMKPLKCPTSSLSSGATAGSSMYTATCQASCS
T2 sequence (P47871 26-477): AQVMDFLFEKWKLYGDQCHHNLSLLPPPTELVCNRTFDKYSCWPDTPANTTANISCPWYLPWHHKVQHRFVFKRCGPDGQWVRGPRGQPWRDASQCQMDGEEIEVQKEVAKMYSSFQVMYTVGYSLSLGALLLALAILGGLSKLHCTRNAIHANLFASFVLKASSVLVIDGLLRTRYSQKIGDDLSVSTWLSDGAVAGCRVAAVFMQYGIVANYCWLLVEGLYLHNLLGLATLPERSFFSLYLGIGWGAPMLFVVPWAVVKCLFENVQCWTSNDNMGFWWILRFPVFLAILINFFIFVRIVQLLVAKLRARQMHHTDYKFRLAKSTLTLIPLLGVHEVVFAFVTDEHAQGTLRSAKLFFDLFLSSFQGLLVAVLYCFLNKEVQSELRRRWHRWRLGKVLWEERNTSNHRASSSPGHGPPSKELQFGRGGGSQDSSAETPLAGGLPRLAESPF

Row | Compound | Activity relative to STD peptide (%), GLP-1 [1] | Activity relative to GLP-1 (%), GLP-1 [1] | Activity relative to STD peptide (%), GLP-1R [1] | Activity relative to GLP-1 (%), GLP-1R [1] | Relative % to native ligand, GLP-1R [1] | Ratio vs. GLP-1R, GLP-1R [1] | Relative % to non-lipidated peptide, GLP-1R [1] | Activity relative to STD peptide (%), Glucagon [2] | Activity relative to GLP-1 (%), Glucagon [2] | Activity relative to STD peptide (%), GCGR [2] | Activity relative to GLP-1 (%), GCGR [2] | Relative % to native ligand, GCGR [2] | Ratio vs. GLP-1R, GCGR [2] | Relative % to non-lipidated peptide, GCGR [2] | Activity relative to STD peptide (%), GIP [3] | Activity relative to GLP-1 (%), GIP [3] | Activity relative to STD peptide (%), GIPR [3] | Activity relative to GLP-1 (%), GIPR [3] | Relative % to native ligand, GIPR [3] | Weight loss (%) ([4]; 20 nmol/kg QD) | other results
1 | CC[C@H](C)[C@H](NC(=O)[C@H](CC(C)C)NC(=O)[C@H](Cc1c[nH]c2ccccc12)NC(=O)[C@H](CCC(N)=O)NC(=O)[C@@H](NC(=O)[C@H](Cc1ccccc1)NC(=O)[C@H](CC(=O)O)NC(=O)[C@H](CCCNC(=N)N)NC(=O)[C@H](C)NC(=O)[C@H](CCSC)NC(=O)[C@H](CCSC)NC(=O)[C@H](Cc1ccc(O)cc1)NC(=O)[C@H](CC(=O)O)NC(=O)[C@H](CC(C)C)NC(=O)[C@H](Cc1ccc(O)cc1)NC(=O)[C@H](CCCCN)NC(=O)[C@H](CO)NC(=O)[C@H](Cc1ccc(O)cc1)NC(=O)[C@H](CC(=O)O)NC(=O)[C@H](CO)NC(=O)[C@@H](NC(=O)[C@H](Cc1ccccc1)NC(=O)[C@@H](NC(=O)CNC(=O)[C@H](CCC(N)=O)NC(=O)C(C)(C)NC(=O)[C@@H](N)Cc1c[nH]cn1)[C@@H](C)O)[C@@H](C)O)C(C)C)C(=O)N[C@@H](CCC(=O)O)C(=O)NCC(=O)NCC(=O)N1CCC[C@H]1C(=O)N[C@@H](CO)C(=O)N[C@@H](CO)C(=O)NCC(=O)N[C@@H](C)C(=O)N1CCC[C@H]1C(=O)N1CCC[C@H]1C(=O)N1CCC[C@H]1C(=O)N[C@@H](CO)C(=O)N[C@@H](CSC1CC(=O)N(CCNC(=O)COCCOCCNC(=O)COCCOCCNC(=O)CC[C@H](NC(=O)CCCCCCCCCCCCCCCCC(=O)O)C(=O)O)C1=O)C(N)=O (some centres unmarked) [5A] | 84% | 100% | 520% | 100% | 201% | 100 | 33% | 8% | 10% | 8% | 2% | 14% | 7 | 2% | 1% | 2% | 0% | 0% | 5% | 20.1 ± 1.3% and 18.8 ± 0.9% and 19.3 ± 1.9% and 22.9 ± 1.5% | Percentage change in EC50 relative to GLP-1 at human GLP-1R (%) ([1]; Table 9, lipidated (A type) peptides): 201%; Percentage change in EC50 relative to GCG at human GCGR (%) ([2]; Table 10, lipidated (A type) peptides): 14%; Percentage change in EC50 relative to GIP at human GIPR (%) ([3]; Table 11, lipidated (A type) peptides): 5%; Ratio vs. GLP-1R, GIPR [3]: 2; Relative % to non-lipidated peptide, GIPR [3]: 167%; body weight loss (BWL), in words ([4]; Example 3, 20 nmol/kg QD or 30 nmol/kg Q2D s.c., 4 days): Superior body weight loss; body weight loss effect, in words ([4]; Example 5, 20 nmol/kg s.c. QD, 4 days): Superior body weight loss effects; Weight loss (%) ([4]; 10 nmol/kg QD): 15.7 ± 2.2%; Weight loss (%) ([4]; 30 nmol/kg Q2D): 14.6 ± 1.8%
2 | CC[C@H](C)[C@H](NC(=O)[C@H](CC(C)C)NC(=O)[C@H](Cc1c[nH]c2ccccc12)NC(=O)[C@H](CCC(N)=O)NC(=O)[C@@H](NC(=O)[C@H](Cc1ccccc1)NC(=O)[C@H](CC(=O)O)NC(=O)[C@H](CCCNC(=N)N)NC(=O)[C@H](C)NC(=O)[C@H](CCSC)NC(=O)[C@H](CCSC)NC(=O)[C@H](Cc1ccc(O)cc1)NC(=O)[C@H](CC(=O)O)NC(=O)[C@H](CC(C)C)NC(=O)[C@H](Cc1ccc(O)cc1)NC(=O)[C@H](CCCCNC(=O)COCCOCCNC(=O)COCCOCCNC(=O)CC[C@H](NC(=O)CCCCCCCCCCCCCCCCC(=O)O)C(=O)O)NC(=O)[C@H](CO)NC(=O)[C@H](Cc1ccc(O)cc1)NC(=O)[C@H](CC(=O)O)NC(=O)[C@H](CO)NC(=O)[C@@H](NC(=O)[C@H](Cc1ccccc1)NC(=O)[C@@H](NC(=O)CNC(=O)[C@H](CCC(N)=O)NC(=O)C(C)(C)NC(=O)[C@@H](N)Cc1c[nH]cn1)[C@@H](C)O)[C@@H](C)O)C(C)C)C(=O)N[C@@H](CCC(=O)O)C(=O)NCC(=O)NCC(=O)N1CCC[C@H]1C(=O)N[C@@H](CO)C(=O)N[C@@H](CO)C(=O)NCC(=O)N[C@@H](C)C(=O)N1CCC[C@H]1C(=O)N1CCC[C@H]1C(=O)N1CCC[C@H]1C(=O)N[C@@H](CO)C(=O)N[C@@H](CSC1CC(=O)N(CCCCCC(=O)NNC(=O)CCCC[C@@H]2SC[C@@H]3NC(=O)N[C@@H]32)C1=O)C(N)=O (some centres unmarked) [5C, HAibQGT FTSDY SK*YLD YMMAR DFVQW LIEGG PSSGA PPPSB#] | 202% | 100% | – | – | – | – | – | 23% | 12% | – | – | – | – | – | 8% | 4% | – | – | – | 14.1 ± 1.9% | Weight loss (%) ([4]; 10 nmol/kg QD): 9.6 ± 1.0%
3 | CC[C@H](C)[C@H](NC(=O)[C@H](CC(C)C)NC(=O)[C@H](Cc1c[nH]c2ccccc12)NC(=O)[C@H](CCC(N)=O)NC(=O)[C@@H](NC(=O)[C@H](Cc1ccccc1)NC(=O)[C@H](CC(=O)O)NC(=O)[C@H](CCCNC(=N)N)NC(=O)[C@H](CCC(N)=O)NC(=O)[C@H](CCSC)NC(=O)[C@H](CCSC)NC(=O)[C@H](Cc1ccc(O)cc1)NC(=O)[C@H](CC(=O)O)NC(=O)[C@H](CC(C)C)NC(=O)[C@H](Cc1ccc(O)cc1)NC(=O)[C@H](CCCCN)NC(=O)[C@H](CO)NC(=O)[C@H](Cc1ccc(O)cc1)NC(=O)[C@H](CC(=O)O)NC(=O)[C@H](CO)NC(=O)[C@@H](NC(=O)[C@H](Cc1ccccc1)NC(=O)[C@@H](NC(=O)CNC(=O)[C@H](CCC(N)=O)NC(=O)C(C)(C)NC(=O)[C@@H](N)Cc1ccc(O)cc1)[C@@H](C)O)[C@@H](C)O)C(C)C)C(=O)N[C@@H](CCC(=O)O)C(=O)NCC(=O)NCC(=O)N1CCC[C@H]1C(=O)N[C@@H](CO)C(=O)N[C@@H](CO)C(=O)NCC(=O)N[C@@H](C)C(=O)N1CCC[C@H]1C(=O)N1CCC[C@H]1C(=O)N1CCC[C@H]1C(=O)N[C@@H](CO)C(=O)N[C@@H](CSC1CC(=O)N(CCNC(=O)COCCOCCNC(=O)COCCOCCNC(=O)CC[C@H](NC(=O)CCCCCCCCCCCCCCCCC(=O)O)C(=O)O)C1=O)C(N)=O (some centres unmarked) [5-2A] (H-Y[Aib]QGTFTSDYSKYLDYMMQRDFVQWLIEGGPSSGAPPPSC(X1)-NH2; N-terminus assumed) | – | – | 145% | 100% | 145% | 100 | 29% | – | – | 1% | 0% | 1% | 0 | 1% | – | – | 3% | 2% | 3% | 10.4 ± 1.2% | Ratio vs. GLP-1R, GIPR [3]: 2; Relative % to non-lipidated peptide, GIPR [3]: 0.4%
